Experimental data reported in patent US20170240593A1, “AROMATIC-CATIONIC PEPTIDES AND USES OF SAME” (Cornell University, priority 2011, published 2017).
Entries after “also recorded” stand apart in the source; their conditions may differ. Non-standard residues stand in square brackets, D forms with d. No end group written: not given here.

Tests used:
[1] = biological target: T1, cytochrome c (Homo sapiens, UniProt P99999); test: Cytochrome c reduction by absorption spectroscopy (absorbance at 550 nm); type: biochemical; settings: for rate of cytochrome c reduction: glutathione (GSH) as reducing agent, absorbance at 550 nm, FIG. 1B, FIG. 13
Description: Cytochrome c reduction: increasing amounts of aromatic-cationic peptides were added to a solution of oxidized cytochrome c. The formation of reduced cytochrome c was monitored by absorbance at […]. The rate of cytochrome c reduction was determined by non-linear analysis (Prizm software).
Time-resolved UV-Visible absorption spectroscopy was used to study the electron transport process of cytochrome c in the presence of peptides. Reduced cytochrome c was monitored by absorbance at a broad-band spectral range (200-1100 nm). The absorption changes were recorded with a UV/Visible spectrophotometer (Ultrospec 3300 pro, GE) in quartz cells with path lengths of 1 or 2 mm. N-acetylcysteine (NAC) and glutathione were used as electron donors to reduce oxidized cytochrome c. The rate constant of cytochrome c reduction was estimated by adding various concentrations of peptides. The dose dependence of the peptides was correlated to the cytochrome c reduction kinetics.
Absorption spectroscopy (UltroSpec 3300 Pro; 220-1100 nm) was used to determine if SS-31 modulates cytochrome c reduction (FIG. 1). Reduction of cytochrome c with glutathione is associated with multiple shifts in the Q band (450-650 nm), with a prominent shift at 550 nm.
SS-31 and SS-20 can accelerate the kinetics of cytochrome c reduction induced by glutathione (GSH) as a reducing agent (FIG. 13). Reduction of cytochrome c was monitored by increase in absorbance at 550 nm. […] Similar results were obtained using N-acetylcysteine (NAC) as a reducing agent (not shown).

[2] = biological target: T1, cytochrome c; test: Cyclic voltammetry of cytochrome c; type: biochemical
[3] = biological target: T1, cytochrome c; test: Photoluminescence of cytochrome c (532.8 nm excitation, 650 nm emission); type: biochemical; settings: Nd:YDO4 laser 532.8 nm
Text: A light source 140, such as a laser or light-emitting diode (LED), illuminates the peptide-doped cytochrome c layer 110 at an excitation wavelength, such as 532.8 nm. […] (As understood by those skilled in the art, the gap between the valence band and the excited state is […] to the excitation wavelength.) After a short relaxation time, the electron decays from the excited state to a conduction band. When the electron relaxes to valence band from the conduction band, the peptide-doped cytochrome c layer 110 emits a photon at a luminescence wavelength, such as 650 nm, fixed by the gap between the valence and conduction bands.
Thus, as the aromatic-cationic peptide concentration in the peptide-doped cytochrome c layer 110 varies due to changes in the pH and/or temperature of the test substrate 130, the intensity at the luminescence wavelength varies as well. Detecting this change in intensity with a photodetector 150 yields an indication of the pH and/or temperature of the test substrate 130.
Photoluminescence (PL) was carried out to examine the effects of SS-31 on the electronic structure of conduction band of the […] of cytochrome c, an energy state responsible for electronic transport (FIG. 3). A […] laser (532.8 nm) was used to excite electrons in cytochrome c (FIG. 2A). Strong PL emission in cytochrome c state can be clearly identified at 650 nm (FIG. 2B).

[4] = biological target: T1, cytochrome c; test: Circular dichroism of Soret band of cytochrome c; type: biochemical; settings: FIG. 4
Description: Circular dichroism (Olis spectropolarimeter, DSM20) was carried out to monitor Soret band (negative peak at 415 nm), as a probe for the π-π* heme environment in cytochrome c (FIG. 4). […] The increase in π-π* interaction around the heme would enhance electron tunneling which would be favorable for electron diffusion.

[5] = system: isolated rat kidney mitochondria; test: O2 consumption of isolated rat kidney mitochondria (Oxygraph); type: biochemical; settings: for electron flux, as measured by O2 consumption: 100 μM peptide, 0.5 mM succinate (complex II substrate) and 400 μM ADP, FIG. 14
Description: (§1) Mitochondrial O2 consumption and ATP production: Fresh mitochondria were isolated from rat kidney as described previously. Electron flux was measured by O2 consumption (Oxygraph Clark electrode) as previously described using different substrates for C1 (glutamate/malate), C2 (succinate), and C3 (TMPD/ascorbate). Assays were carried out under low substrate conditions in order to avoid saturating the enzyme reactions. ATP production in isolated mitochondria was determined kinetically using the luciferase method (Biotherma) in a 96-well luminescence plate reader (Molecular Devices). The initial maximal rate for ATP synthesis was determined over the first minute.
Oxygen consumption of isolated rat kidney mitochondria was determined using the Oxygraph (FIG. 5). Rates of respiration were measured in the presence of different concentrations of SS-31 in state 2 (400 μM ADP only), state 3 (400 μM ADP and 500 μM substrates) and state 4 (substrates only). All experiments were done in triplicate with n=4-7.
(§2) SS-20 or SS-31 was added at 100 μM concentrations to isolated mitochondria in respiration buffer containing 0.5 mM succinate (complex II substrate) and 400 μM ADP.

[6] = system: isolated mitochondria; test: ATP synthesis in isolated mitochondria; type: biochemical, rat; settings: for rate of ATP production: isolated mitochondria energized with low concentrations of succinate, FIG. 15
Description: as §1
The rate of mitochondrial ATP synthesis was determined by measuring ATP in respiration buffer collected from isolated mitochondria 1 min after addition of […] (FIG. 6). ATP was assayed by HPLC. All experiments were carried out in triplicate, with n=3.
as §2

[7] = system: cytochrome c-depleted mitoplasts made from once-frozen rat kidney mitochondria; test: O2 consumption in cytochrome c-depleted mitoplasts; type: biochemical; settings: 500 μM Succinate, 100 μM SS-31; FIG. 7
Description: Rates of respiration were measured in the presence of 500 μM Succinate with or without 100 μM SS-31. The experiment was carried out in triplicate, with n=3.

[8] = system: H2O2, hydroxyl radical, and peroxynitrite; test: Neutralization of reactive species and lipid peroxidation; type: biochemical
[9] = system: animal models of ischemia-reperfusion injury, neurodegenerative diseases, and metabolic syndrome; test: Animal models of ischemia-reperfusion injury, neurodegenerative diseases, and metabolic syndrome; type: in vivo
[10] = system: mitochondrial ROS; test: Cellular and animal studies of mitochondrial ROS and function

T1 sequence (P99999 whole entry, species assumed): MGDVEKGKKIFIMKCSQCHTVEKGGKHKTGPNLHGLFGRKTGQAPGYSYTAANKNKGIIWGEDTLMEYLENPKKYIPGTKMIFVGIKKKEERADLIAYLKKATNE

D-Arg-2′,6′-Dmt-Lys-Phe-NH2 [SS-31]
rate of NAC-induced cytochrome c reduction ([1]; N-acetylcysteine (NAC) as reducing agent): dose-dependently increased
rate of cytochrome c reduction [1]: increased; also recorded: accelerate
reduction of cytochrome c by peptide alone ([1]; peptide alone at 100 μM, no reducing agent): did not reduce cytochrome c
spectral weight shift at 550 nm of cytochrome c ([1]; reduction of cytochrome c with glutathione, FIG. 1A): significant spectral weight shift
current for reduction and oxidation processes of cytochrome c ([2]; Au working electrode, Ag/AgCl reference, FIG. 2 upper panel): increased current
reduction/oxidation potentials of cytochrome c ([2]; FIG. 2 upper panel): does not alter
increase of current (electron diffusion rate) ([2]; cytochrome c:SS-31=1:2, TBE buffer, FIG. 2 lower panel): ~200%
PL intensity of cytochrome c at 650 nm [3]: increased dose-dependently
denaturing of cytochrome c [4]: without denaturing
Soret band peak position after red shift ([4]; negative peak at 415 nm without peptide): 440 nm
electron flux, as measured by O2 consumption [5]: promote electron flux
rates of respiration (O2 consumption) ([5]; different concentrations of SS-31, state 2, state 3 and state 4, FIG. 5): promoted electron transfer to oxygen without uncoupling mitochondria
rate of ATP synthesis ([6]; ATP by HPLC 1 min after addition of 400 mM ADP, FIG. 6): dose-dependently increased
rate of ATP production [6]: significant increase
mitochondrial O2 consumption (rates of respiration) in cytochrome c-depleted mitoplasts [7]: Enhances Respiration

F[dR]FK-NH2 [SS-20]
rate of cytochrome c reduction [1]: accelerate
electron flux, as measured by O2 consumption [5]: promote electron flux
rate of ATP production [6]: significant increase

D-Arg-2′6′-Dmt-Tyr-Lys-Phe-NH2
lipid peroxidation [8]: inhibit lipid peroxidation
neutralization of H2O2, hydroxyl radical, and peroxynitrite [8]: can neutralize H2O2, hydroxyl radical, and peroxynitrite
efficacy in animal models [9]: remarkable efficacy
mitochondrial ROS and mitochondrial function [10]: reduces mitochondrial ROS and protect mitochondrial function
